Values quoted from earlier work, collected in patent publication US20250268832A1, “Pretomanid Compositions” (The Global Alliance for TB Drug Development, Inc., priority 2019, published 2025).

What was measured:
[1] = tested on: drug-resistant clinical isolates; details: background statement
[2] = tested on: Mycobacterium tuberculosis; details: background statement
[3] = poorly soluble

## O=[N+]([O-])c1cn2c(n1)OC[C@@H](OCc1ccc(OC(F)(F)F)cc1)C2 [Pretomanid, (65)-2-nitro-6-{[4-(trifluoromethoxy)benzyl]oxy}-6,7,-dihydro-5H-imidazol[2.1b][1.3]oxazine]
[1]
  activity in vitro against drug-resistant clinical isolates: activity in vitro against all tested drug-resistant clinical isolates
[2]
  activity in mice: potent bactericidal and sterilizing agent
[3]
  Biopharmaceutics Classification System (BCS) class: Class II/IV
